Values of other authors in patent publication US20100028276A1, “SUNSCREEN COMPOSITIONS” (priority 2007, published 2010).

Assays:
[1] = uterine wet weight, cell height, cell proliferation assays

SMILES | effect on growth of cancer cells (cancer cells) | estrogenicity [1]
Cc1ccc(C=C2C(=O)C3(C)CCC2C3(C)C)cc1 (stereo not drawn) [4-methyl-benzylidene camphor, 3-(4-methylbenxylidene) camphor] | made cancer cells grow more rapidly | highly estrogenic
COc1ccc(C(=O)c2ccccc2)c(O)c1 [benzophenone-s, Benzophenone-3] | made cancer cells grow more rapidly | highly estrogenic
CC1CC(OC(=O)c2ccccc2O)CC(C)(C)C1 (stereo not drawn) [homosalate] | made cancer cells grow more rapidly | –
CCCCC(CC)COC(=O)c1ccc(N(C)C)cc1 (stereo not drawn) [octyl-dimethyl-PABA] | made cancer cells grow more rapidly | –
